# Results published in patent publication US8012956B2, “Tropane compounds” (Exelixis, Inc., priority 2007, dated 2011).
# Molecular target: HSP90 (Homo sapiens, UniProt P07900)
# Test: HSP90 inhibition (HSP90 IC50)
# Type: biochemical
row,Compound,IC50 [nM]
1,COc1cccc(C(=O)N[C@H]2C[C@H]3CC[C@@H](C2)N3c2ccc(C(=O)NCc3c(F)cccc3OC)cn2)c1C [N-{[2-fluoro-6-(methyloxy)phenyl]methyl}-6-[3-endo-({[2-methyl-3-(methyloxy)phenyl]carbonyl}amino)-8-azabicyclo[3.2.1]oct-8-yl]pyridine-3-carboxamide],1000 to 2000
2,"COc1cc(CNC(=O)c2ccc(N3[C@@H]4CC[C@H]3C[C@@H](NC(=O)c3cccc(OC)c3C)C4)nc2)cc(OC)c1 [N-{[3,5-bis(methyloxy)phenyl]methyl}-6-[3-endo-({[2-methyl-3-(methyloxy)phenyl]carbonyl}amino)-8-azabicyclo[3.2.1]oct-8-yl]pyridine-3-carboxamide]",1000 to 2000
3,COc1cccc(C(=O)N[C@H]2C[C@H]3CC[C@@H](C2)N3c2ccc(C(=O)NCc3ccc(N4CCN(C)CC4)c(F)c3)cn2)c1C [N-{[3-fluoro-4-(4-methylpiperazin-1-yl)phenyl]methyl}-6-[3-endo-({[2-methyl-3-(methyloxy)phenyl]carbonyl}amino)-8-azabicyclo[3.2.1]oct-8-yl]pyridine-3-carboxamide],< 500
4,COc1ccc(CNC(=O)c2ccc(N3[C@@H]4CC[C@H]3C[C@@H](NC(=O)c3cccc(OC)c3C)C4)nc2)cc1F [N-{[3-fluoro-4-(methyloxy)phenyl]methyl}-6-[3-endo-({[2-methyl-3-(methyloxy)phenyl]carbonyl}amino)-8-azabicyclo[3.2.1]oct-8-yl]pyridine-3-carboxamide],< 500
5,COc1cc(F)ccc1CNC(=O)c1ccc(N2[C@@H]3CC[C@H]2C[C@@H](NC(=O)c2cccc(OC)c2C)C3)nc1 [N-{[4-fluoro-2-(methyloxy)phenyl]methyl}-6-[3-endo-({[2-methyl-3-(methyloxy)phenyl]carbonyl}amino)-8-azabicyclo[3.2.1]oct-8-yl]pyridine-3-carboxamide],1000 to 2000
6,COc1cc(CNC(=O)c2ccc(N3[C@@H]4CC[C@H]3C[C@@H](NC(=O)c3cccc(OC)c3C)C4)nc2)ccc1F [N-{[4-fluoro-3-(methyloxy)phenyl]methyl}-6-[3-endo-({[2-methyl-3-(methyloxy)phenyl]carbonyl}amino)-8-azabicyclo[3.2.1]oct-8-yl]pyridine-3-carboxamide],500 to 999
7,CCOC(=O)N1CCC(NC(=O)c2ccc(N3[C@@H]4CC[C@H]3C[C@@H](NC(=O)c3cccc(OC)c3C)C4)nc2)CC1 [ethyl 4-[({6-[3-endo-({[2-methyl-3-(methyloxy)phenyl]carbonyl}amino)-8-azabicyclo[3.2.1]oct-8-yl]pyridin-3-yl}carbonyl)amino]piperidine-1-carboxylate],< 500
8,"N4-(8-{5-[({(1S)- 1-[4-(4- methylpiperazin-1- yl)phenyl]ethyl}amino)carbonyl]pyridin- 2-yl}-8-azabicyclo[3.2.1]oct-3- endo-yl)-2-(phenylamino)benzene- 1,4-dicarboxamide",< 500
9,"N4-[8-(5-butanoylpyridin-2-yl)-8- azabicyclo[3.2.1]oct-3-endo-yl]-2- [(cyclopropylmethyl)amino]benzene- 1,4-dicarboxamide",500 to 999
10,"N4-{8-[5- (cyclopropylcarbonyl)pyridin-2-yl]-8- azabicyclo[3.2.1]oct-3-endo-yl}-2- [(cis-4-hydroxy-4- methylcyclohexyl)amino]benzene- 1,4-dicarboxamide",< 500
11,N-[8-(5-acetylpyradin-2-yl)-8- azabicyclo[3.2.1]oct-3-endo-yl]-2- methyl-3-(methyloxy)benzamide,500 to 999
12,"N-[(1S,2S)-2-hydroxycyclopentyl]-6- [3-endo-({[2-methyl-3- (methyloxy)phenyl]oarbonyl}amino)- 8-azabicyclo[3.2.1]oct-8-yl]pyridine- 3-carboxamide",500 to 999
13,"N-{8-[5-(cyclopropylcarbonyl)pyridin- 2-yl]-8-azabicyclo[3.2.1]oct-3-endo- yl}-5-[(1-ethylpropyl)amino]-2- methylbenzene-1,4-dicarboxamide",< 500
